Measurements published in ChEMBL document CHEMBL1140610, “Matrix metalloproteinases (MMPs): chemical-biological functions and (Q)SARs” (Bioorg Med Chem, 2007).

What was measured:
Interstitial collagenase = biological target: T1, Interstitial collagenase (Homo sapiens, UniProt P03956); conditions: read-out: log(1/IC50) (converted)
T1 sequence (P03956 whole entry): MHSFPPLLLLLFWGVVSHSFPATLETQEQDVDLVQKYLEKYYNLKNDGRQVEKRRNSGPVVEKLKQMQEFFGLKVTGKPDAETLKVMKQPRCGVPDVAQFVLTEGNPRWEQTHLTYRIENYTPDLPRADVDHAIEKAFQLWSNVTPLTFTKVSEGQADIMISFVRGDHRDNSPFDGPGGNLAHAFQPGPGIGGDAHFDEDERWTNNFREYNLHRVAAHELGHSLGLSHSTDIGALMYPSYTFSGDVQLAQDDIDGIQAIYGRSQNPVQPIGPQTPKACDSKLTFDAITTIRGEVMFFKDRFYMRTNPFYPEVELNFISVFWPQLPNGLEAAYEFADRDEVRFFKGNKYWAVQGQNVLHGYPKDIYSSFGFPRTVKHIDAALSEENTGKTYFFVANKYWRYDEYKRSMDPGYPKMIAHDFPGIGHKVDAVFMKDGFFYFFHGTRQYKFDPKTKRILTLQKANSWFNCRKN

[1] = biological target: Matrix metalloproteinase-14 (Homo sapiens, UniProt P50281)
Matrilysin = biological target: T2, Matrilysin (Homo sapiens, UniProt P09237); conditions: read-out: log(1/IC50) (converted)
T2 sequence (P09237 whole entry): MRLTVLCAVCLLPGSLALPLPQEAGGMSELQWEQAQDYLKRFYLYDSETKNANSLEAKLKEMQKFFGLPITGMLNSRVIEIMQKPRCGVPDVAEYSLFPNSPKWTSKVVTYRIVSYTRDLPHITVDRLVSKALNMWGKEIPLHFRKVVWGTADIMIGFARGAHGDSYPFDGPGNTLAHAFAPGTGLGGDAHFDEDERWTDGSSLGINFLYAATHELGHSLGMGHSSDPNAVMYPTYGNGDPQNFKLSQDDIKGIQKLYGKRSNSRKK

| SMILES | IC50 (Interstitial collagenase) [nM] | other results |
| --- | --- | --- |
| CC(C(=O)NO)N(Cc1ccc([N+](=O)[O-])cc1)S(=O)(=O)c1c(F)c(F)c(F)c(F)c1F (stereo not given) | 3.98 | – |
| CCOCCC1(Oc2ccc(Oc3ccc(F)cc3)cc2)C(=O)NC(=O)NC1=O | – | IC50 [1]: 22.9 nM |
| CNC(=O)[C@@H](Cc1ccc(OC)cc1)NC(=O)C(CC(C)C)CP(=O)(O)Cc1ccc(S(=O)(=O)c2ccccc2)cc1 (stereo not given in full) | 1700 | – |
| CNC(=O)[C@@H](Cc1ccc(OC)cc1)NC(=O)C(CC(C)C)CP(=O)(O)Cc1ccc(Cc2ccccc2)cc1 (stereo not given in full) | 269 | – |
| CNC(=O)[C@@H](Cc1ccc(OC)cc1)NC(=O)C(CC(C)C)CP(=O)(O)Cc1ccccc1-c1ccccc1 (stereo not given in full) | 11000 | – |
| CNC(=O)[C@@H](NC(=O)C(CCC1CCCCC1)CP(=O)(O)Cc1ccc(Cc2ccccc2)cc1)C(C)(C)C (stereo not given in full) | 19100 | – |
| CNC(=O)[C@@H](Cc1ccc(OC)cc1)NC(=O)C(CC(C)C)CP(=O)(O)Cc1ccc(-c2ccccc2)cc1 (stereo not given in full) | 2190 | – |
| CNC(=O)[C@@H](Cc1ccc(OC)cc1)NC(=O)C(CC(C)C)CP(=O)(O)Cc1ccc(CC(C)C)cc1 (stereo not given in full) | 4470 | – |
| C[C@@]1(O)CCCN(S(=O)(=O)c2ccc(OCc3ccccc3C#N)cc2)C1C(=O)NO (stereo not given in full) | 2690 | – |
| Cc1c(F)cccc1COc1ccc(S(=O)(=O)N2CCC[C@@](C)(O)C2C(=O)NO)cc1 (stereo not given in full) | 1290 | – |
| C[C@@]1(O)CCCN(S(=O)(=O)c2ccc(OCc3ccccc3F)cc2)C1C(=O)NO (stereo not given in full) | 182 | – |
| C[C@@]1(O)CCCN(S(=O)(=O)c2ccc(OCc3cccc(F)c3)cc2)C1C(=O)NO (stereo not given in full) | 339 | – |
| C[C@@]1(O)CCCN(S(=O)(=O)c2ccc(OCc3ccc(F)cc3)cc2)C1C(=O)NO (stereo not given in full) | 417 | – |
| Cc1ccccc1COc1ccc(S(=O)(=O)N2CCC[C@@](C)(O)C2C(=O)NO)cc1 (stereo not given in full) | 309 | – |
| CC(N)P(=O)(O)CC(CCCc1ccccc1)C(=O)NC(Cc1c[nH]c2ccccc12)C(N)=O (stereo not given) | 30.9 | – |
| CNC(=O)[C@@H](Cc1ccc(OC)cc1)NC(=O)C(CC(C)C)CP(=O)(O)Cc1cccc(-c2ccccc2)c1 (stereo not given in full) | 5130 | – |
| C[C@@]1(O)CCCN(S(=O)(=O)c2ccc(OCc3ccc(F)cc3Cl)cc2)C1C(=O)NO (stereo not given in full) | 309 | – |
| C[C@@]1(O)CCCN(S(=O)(=O)c2ccc(OCc3ccc(Cl)cc3F)cc2)C1C(=O)NO (stereo not given in full) | 120 | – |
| CCOCCC1(Oc2ccc(Oc3ccccc3F)cc2)C(=O)NC(=O)NC1=O | – | IC50 [1]: 15.8 nM |
| COc1ccc(S(=O)(=O)N2CC(N3C(=O)CN(C)C3=O)C[C@@H]2C(=O)NO)cc1 (stereo not given in full) | – | IC50 (Matrilysin): 1820 nM |
| CCOCCC1(Oc2ccc(Oc3ccc(Cl)cc3)cc2)C(=O)NC(=O)NC1=O | – | IC50 [1]: 18.2 nM |
| CCOCCC1(Oc2ccc(Oc3cccc(Cl)c3)cc2)C(=O)NC(=O)NC1=O | – | IC50 [1]: 120 nM |
| CCOCCC1(Oc2ccc(Oc3ccc(C)cc3)cc2)C(=O)NC(=O)NC1=O | – | IC50 [1]: 22.9 nM |
| CCOCCC1(Oc2ccc(Oc3cccc(C)c3)cc2)C(=O)NC(=O)NC1=O | – | IC50 [1]: 50.1 nM |

| SMILES | IC50 (Interstitial collagenase) [nM] | other results |
| --- | --- | --- |
| CCOCCC1(Oc2ccc(Oc3ccccc3C)cc2)C(=O)NC(=O)NC1=O | – | IC50 [1]: 70.8 nM |
| CCOCCC1(Oc2ccc(Oc3ccc(C(F)(F)F)cc3)cc2)C(=O)NC(=O)NC1=O | – | IC50 [1]: 151 nM |
| C[C@@]1(O)CCCN(S(=O)(=O)c2ccc(OCc3ccnc(Cl)c3)cc2)C1C(=O)NO (stereo not given in full) | 525 | – |
| CCOCCC1(Oc2ccc(Oc3ccc(C(C)(C)C)cc3)cc2)C(=O)NC(=O)NC1=O | – | IC50 [1]: 6760 nM |
| CCOCCC1(Oc2ccc(Oc3ccc(OC)cc3)cc2)C(=O)NC(=O)NC1=O | – | IC50 [1]: 219 nM |
| CCOCCC1(Oc2ccc(Oc3ccc(S(C)(=O)=O)cc3)cc2)C(=O)NC(=O)NC1=O | – | IC50 [1]: 8710 nM |
| Cc1ncccc1COc1ccc(S(=O)(=O)N2CCC[C@@](C)(O)C2C(=O)NO)cc1 (stereo not given in full) | 1580 | – |
| CCOCCC1(Oc2ccc(Oc3ccc(C#N)cc3)cc2)C(=O)NC(=O)NC1=O | – | IC50 [1]: 200 nM |
| CCOCCC1(Oc2ccc(Oc3ccc(C(=O)NC)cc3)cc2)C(=O)NC(=O)NC1=O | – | IC50 [1]: 646 nM |
| C[C@@]1(O)CCCN(S(=O)(=O)c2ccc(OCc3ccnc4ccccc34)cc2)C1C(=O)NO (stereo not given in full) | 120 | – |
| CCCCOc1ccc(S(=O)(=O)N2CC(N3C(=O)NC(C)(C)C3=O)C[C@@H]2C(=O)NO)cc1 (stereo not given in full) | – | IC50 (Matrilysin): 447 nM |
| C=CCN1CC(=O)N(C2C[C@H](C(=O)NO)N(S(=O)(=O)c3ccc(OCCC)cc3)C2)C1=O (stereo not given in full) | – | IC50 (Matrilysin): 2570 nM |
| C=CCN1CC(=O)N(C2C[C@H](C(=O)NO)N(S(=O)(=O)c3ccc(OCCOC)cc3)C2)C1=O (stereo not given in full) | – | IC50 (Matrilysin): 11000 nM |
| CCCCOc1ccc(S(=O)(=O)N2CC(N3C(=O)CN(CCC)C3=O)C[C@@H]2C(=O)NO)cc1 (stereo not given in full) | – | IC50 (Matrilysin): 1200 nM |
| CNC(=O)[C@@H](NC(=O)C(CC(C)C)CP(=O)(O)Cc1ccc(Cc2ccccc2)cc1)C(C)(C)C (stereo not given in full) | 60.3 | – |
| CNC(=O)[C@@H](NC(=O)C(CCC(F)(F)F)CP(=O)(O)Cc1ccc(Cc2ccccc2)cc1)C(C)(C)C (stereo not given in full) | 44.7 | – |
| CNC(=O)[C@@H](NC(=O)C(CC1CC1)CP(=O)(O)Cc1ccc(Cc2ccccc2)cc1)C(C)(C)C (stereo not given in full) | 200 | – |
| CNC(=O)[C@@H](NC(=O)C(CC1CCC1)CP(=O)(O)Cc1ccc(Cc2ccccc2)cc1)C(C)(C)C (stereo not given in full) | 178 | – |
| CNC(=O)[C@@H](NC(=O)C(CC1CCCCC1)CP(=O)(O)Cc1ccc(Cc2ccccc2)cc1)C(C)(C)C (stereo not given in full) | 1820 | – |
| CNC(=O)[C@@H](NC(=O)C(CCc1ccccc1)CP(=O)(O)Cc1ccc(Cc2ccccc2)cc1)C(C)(C)C (stereo not given in full) | 692 | – |
| O=C(CN(Cc1ccc([N+](=O)[O-])cc1)S(=O)(=O)c1c(F)c(F)c(F)c(F)c1F)NO | 3.02 | – |
| CC(C)CC(C(=O)NO)N(Cc1ccccc1)S(=O)(=O)c1c(F)c(F)c(F)c(F)c1F (stereo not given) | 6.03 | – |
| CC(N)P(=O)(O)CC(CSCc1ccccc1)C(=O)NC(Cc1c[nH]c2ccccc12)C(N)=O (stereo not given) | 14.1 | – |
| CNC(=O)[C@@H](Cc1ccc(OC)cc1)NC(=O)C(CC(C)C)CP(=O)(O)Cc1cccc(CCc2ccccc2)c1 (stereo not given in full) | 7410 | – |

| SMILES | IC50 (Interstitial collagenase) [nM] | other results |
| --- | --- | --- |
| C[C@@]1(O)CCCN(S(=O)(=O)c2ccc(OCc3cncc4ccccc34)cc2)C1C(=O)NO (stereo not given in full) | 7760 | – |
| CNC(=O)[C@@H](Cc1ccc(OC)cc1)NC(=O)C(CC(C)C)CP(=O)(O)Cc1ccc(CC2CCCCC2)cc1 (stereo not given in full) | 1910 | – |
| C[C@@]1(O)CCCN(S(=O)(=O)c2ccc(OCc3ccncc3)cc2)C1C(=O)NO (stereo not given in full) | 191 | – |
| C[C@@]1(O)CCCN(S(=O)(=O)c2ccc(OCc3cccc(Cl)c3)cc2)C1C(=O)NO (stereo not given in full) | 851 | – |
| CCCCOc1ccc(S(=O)(=O)N2CC(N3C(=O)NC(SC)C3=O)C[C@@H]2C(=O)NO)cc1 (stereo not given in full) | – | IC50 (Matrilysin): 851 nM |
| CNC(=O)[C@@H](Cc1ccc(OC)cc1)NC(=O)C(CC(C)C)CP(=O)(O)Cc1ccccc1 (stereo not given in full) | 15100 | – |
| CC(N)P(=O)(O)CC(Cc1ccccc1)C(=O)NC(Cc1c[nH]c2ccccc12)C(N)=O (stereo not given) | 251 | – |
| CCCN1CC(=O)N(C2C[C@H](C(=O)NO)N(S(=O)(=O)c3ccc(OCCOC)cc3)C2)C1=O (stereo not given in full) | – | IC50 (Matrilysin): 11000 nM |
| CCCC(CP(=O)(O)Cc1ccc(Cc2ccccc2)cc1)C(=O)N[C@H](C(=O)NC)C(C)(C)C (stereo not given in full) | 339 | – |
| CNC(=O)[C@@H](NC(=O)C(CCC(C)C)CP(=O)(O)Cc1ccc(Cc2ccccc2)cc1)C(C)(C)C (stereo not given in full) | 3470 | – |
| CCOCCC1(Oc2ccc(Oc3ccccc3Cl)cc2)C(=O)NC(=O)NC1=O | – | IC50 [1]: 513 nM |
| CCOCCC1(Oc2ccc(Oc3ccc(Br)cc3)cc2)C(=O)NC(=O)NC1=O | – | IC50 [1]: 19.1 nM |
| CCOCCC1(Oc2ccc(Oc3ccc(-c4ccccc4)cc3)cc2)C(=O)NC(=O)NC1=O | – | IC50 [1]: 36.3 nM |
| CCOCCC1(Oc2ccc(Oc3ccc(C(N)=O)cc3)cc2)C(=O)NC(=O)NC1=O | – | IC50 [1]: 617 nM |
| CCOCCC1(Oc2ccc(Oc3ccc(C(=O)N(C)C)cc3)cc2)C(=O)NC(=O)NC1=O | – | IC50 [1]: 9330 nM |
| CNC(=O)[C@@H](Cc1ccc(OC)cc1)NC(=O)C(CC(C)C)CP(=O)(O)Cc1ccc(Oc2ccccc2)cc1 (stereo not given in full) | 2820 | – |
| CC(N)P(=O)(O)CC(COCc1ccccc1)C(=O)NC(Cc1c[nH]c2ccccc12)C(N)=O (stereo not given) | 251 | – |
| C=CCN1CC(=O)N(C2C[C@H](C(=O)NO)N(S(=O)(=O)c3ccc(OCCCC)cc3)C2)C1=O (stereo not given in full) | – | IC50 (Matrilysin): 1000 nM |
| CCOCCC1(Oc2ccc(Oc3cccc(F)c3)cc2)C(=O)NC(=O)NC1=O | – | IC50 [1]: 60.3 nM |
| CC(N)P(=O)(O)CC(CCc1ccccc1)C(=O)NC(Cc1c[nH]c2ccccc12)C(N)=O (stereo not given) | 79.4 | – |
| COc1ccccc1COc1ccc(S(=O)(=O)N2CCC[C@@](C)(O)C2C(=O)NO)cc1 (stereo not given in full) | 2570 | – |
| C[C@@]1(O)CCCN(S(=O)(=O)c2ccc(OC[n+]3ccncc3)cc2)C1C(=O)NO (stereo not given in full) | 1580 | – |
